Measurements: US20210290680A1, “METHODS AND COMPOSITIONS FOR MODULATING CELLULAR AGING” (Dorian Therapeutics, Inc., priority 2019, published 2021)

How the values were obtained:
[1] = system: activated primary T cells; experiment: Navitoclax-induced cell death (Sytox-negative cell count after 72 hours); type: cell-based, human; details: Younger T cells (day 12) compared with Older T cells (day 24)
Method: Activated primary T cells were treated with the indicated amount of Navitoclax. Navitoclax is a senolytic drug selectively targeting senescent cells (Zhu et al., Aging Cell, 2016). After 72 hours, Sytox-negative T cells were counted by flow cytometry using MACSQuant (Myltenyi Biotec). […] In each experiment two different primary T cell cultures were tested for each condition (four replicas for each condition). DMSO is a negative control. Navitoclax (cat #HY-10087) was purchased from MCE. Primary T cells were activated as described (Example 3) and transduced with a lentivirus encoding either a shUSP16 or a non-targeting shRNA (shC). T cells were then treated with the indicated amount of Navitoclax. After 72 hours, Sytox-negative GFP+ cells were counted, and the numbers of dead cells were calculated as 100%−(#treated/#untreated) cells. Two different time points were tested (day 12, day 22) with two different primary T cell cultures (four replicas per each condition).

[2] = system: primary T cells; experiment: Stem cell memory T cell phenotype by flow cytometry (CD45RA+CD62L+); type: cell-based, human; details: CRISPR knockout, day 15 post-activation
Method: Primary T cells were activated as described (Example 3), transduced with a lentivirus encoding for either a shUSP16 or a non-targeting shRNA (Ctrl) and sorted for GFP on day 8. Cells were cultured in the presence of IL-2 and their phenotype was analyzed at day 20. Cells were stained for CD4-PerCP-5.5 or CD8-BV510, CD62L-Allophycocyanin, CD45RA-BV510 or PE-Cy7 (Biolegend). Naïve or stem cell memory T cells (TNa/SCM) were identified as Sytox^− GFP^+CD45RA^+CD62L^+. Number of TNa/SCM was calculated as (#CD4 or CD8 T cells*TNa/SCMpercentage)/100. Flow cytometry was performed on the MACQuant (Myltenyi Biotec) and the data analyzed with FlowJo (shCtrl vs shUSP CD4: 0.4978 vs 0.7915, p=0.0673 and CD8: 2.469 vs 4.984, p=0.00392, n=7). Downregulation of USP16 expression increases the number of CD4+CD45RA+CD62L+(FIG. 11A) and CD8+CD45RA+CD62L+(FIG. 11B) cells in culture by 1.7 (p=0.0205) and 1.9 (p=0.0097) times, respectively.
Primary T cells were activated as described (Example 3), transduced with a lentivirus encoding either a shUSP16 #1, shUSP16 #2 or a non-targeting shRNA (shCtrl) and cells were selected with puromycin at day 6. At day 15 cell were collected and analyzed by qPCR for the expression of LEF1 (FIG. 16A) and TCF7 (FIG. 16B), downstream regulators of the WNT pathway. At day 20, cells were stained for CD4-PE, CD8-BV510, CD62L-Allophycocyanin and CD45RA-APC-Cy7 (Biolegend). Stem cell memory T cells (Tscm) were identified as Sytox^− GFP^+CD45RA^+CD62L^+, central memory T cells (Tcm) as Sytox^−GFP^+CD45RA^−CD62L^+, effector memory T cells (Tem) as Sytox^−GFP^+CD45RA^−CD62L^−, and terminal effector T cell (Teff) as Sytox^−GFP^+CD45RA^+CD62L^− (FIG. 17A). Cells were gated on the CD8 population. The specific increase of Tscm was shown as phenotype ratio (FIG. 17B).
Primary T cells were activated as described (Example 3). At Day 6 post-activation, dynabeads were removed and T cells electroporated using the Neon Transfection System (ThermoFisher) with a 2.5:1 ratio sgRNA:Cas9. The experiment was performed following the protocol optimized for primary T cell by Synthego (CRISPR Editing Human Primary CD4+ T cells with RNPs using Neon Electroporation Protocol, 2018 version). The sgRNA used are the following: gUSP16 #1 5′-[…]-3′ (SEQ ID NO: 10) and gSynthego that comprises 3 different sgRNAs (gRNA-A: 5′-[…] 3′ (SEQ ID NO: 11); gRNA-B: 5′-[…]-3′ (SEQ ID NO: 12); gRNA-C: 5′-[…]-3′ (SEQ ID NO: 13)). Control T cells, identified as Mock, were electroporated but no Cas9:sgRNA mixture was added. […] At day 15 post-activation, cells were stained for CD4-PE, CD8-BV510, CD62L-Allophycocyanin and CD45RA-APC-Cy7 (Biolegend). Stem cell memory T cells (Tscm) were identified as Sytox^−GFP^+CD45RA^+CD62L^+ and graphed as ratio compared to mock cells (FIG. 22). The experiment was repeated using primary T cells obtained from buffy coats of 2 different healthy donors.
Primary T cells were activated as described (Example 3), transduced with a lentivirus encoding for either a CD19.CAR or a GD2.CAR co-expressing shUSP16 #1, shUSP16 #2 or a scrambled shRNA (Control). At day 15, GD2.CAR and CD19.CAR T cells were stained for EGFR-AF488 (R&D), CD3-PE, CD8-BV510, CD62L-Allophycocyanin and CD45RA-APC-Cy7 (Biolegend). Stem cell memory T cells (Tscm) were identified as FITC^+CD45RA^+CD62L^+, central memory T cells (Tcm) as FITC^+CD45RA^−CD62L^+, effector memory T cells (Tem) as FITC^+CD45RA^−CD62L^−, and terminal effector T cell (Teff) as FITC^+CD45RA^+CD62L^−. Cells were gated on the CD8 population. The specific increase of Tscm was shown as phenotype ratio (FIGS. 28A and 28B).

| Compound | sensitivity to Navitoclax-induced cell death [1] | stem cell memory T cells, ratio compared to mock cells [2] |
| --- | --- | --- |
| CC1(C)CCC(c2ccc(Cl)cc2)=C(CN2CCN(c3ccc(C(=O)NS(=O)(=O)c4ccc(N[C@H](CCN5CCOCC5)CSc5ccccc5)c(S(=O)(=O)C(F)(F)F)c4)cc3)CC2)C1 [Navitoclax] | less sensitive |  |
| gSynthego: comprises 3 different sgRNAs (gRNA-A, gRNA-B, gRNA-C; SEQ ID NO: 11-13), electroporated with Cas9 (guide 1 GUGUGCAGACACAUUAGAAA; guide 2 UAUUGUCAGUCUUACAGUCU; guide 3 GUUUGGCUGUGUCUUAAAUG; listed as RNA, chemistry not given here) |  | 1.49 |
| gUSP16 #1: sgRNA 5′-UGGCGUCAGAUAGUGCUUCA-3′ (SEQ ID NO: 10), electroporated with Cas9 (listed as RNA, chemistry not given here) |  | 1.178 |
